Laboratory results as given in patent US20240270776A1, “PALLADIUM VINYL AND BUTADIENYL COMPOUNDS AS CHEMOTHERAPEUTIC AGENTS” (UNIVERSITÀ CA' FOSCARI VENEZIA, priority 2021, published 2024).

Key:
Assay type in all cases: cell-based
DLD1 (colon cancer) = experiment: IC50 against tumor cell line DLD1, CellTiter-Glo cell viability; conditions: DLD1 cells, 96 hours, mean ± standard deviation of triplicate
Protocol: (§1) Example 11: evaluation of the therapeutic efficacy of the compounds of the invention.
(§2) Tests were carried out to determine the inhibitory concentration (IC50) of the compounds of the invention against tumor cell lines and on a control cell line; for comparison, the same tests were carried out with the cisplatin compound.
(§3) The cell lines tested were: A2780 and A2780cis, (ovarian cancer), MDA-MB231 (triple-negative breast cancer) and DLD1 (colon cancer) and MRC-5 (control; lung fibroblasts).
(§4) The stock solutions were obtained in dimethyl sulfoxide for compounds I-X and in H^20 for cisplatin.
(§5) The cells were kept, in accordance with the protocols indicated by the suppliers, at 37° C. in an atmosphere containing 5% carbon dioxide. About 500 cells were plated on 96 different wells and kept under such conditions for 96 hours.
(§6) Cell viability was determined, after treatment of the cells with a 1:1 solution of CellTiter-Glo® (registered trademark of Promega Corp., Madison, Wisconsin, USA) and DPBS, with the Tecan Infinite® M1000 instrument. IC50 values were calculated from dose response curves. The means and standard deviations were obtained from tripled measurements.

[1] = test system: A2780cis (ovarian cancer); experiment: IC50 against tumor cell line A2780cis, CellTiter-Glo cell viability
Protocol: as §1, §2, §3, §4, §5, §6

[2] = test system: MDA-MB231 (triple-negative breast cancer); experiment: IC50 against tumor cell line MDA-MB231, CellTiter-Glo cell viability; conditions: MDA-MB231 cells, 96 hours, mean ± standard deviation of triplicate
Protocol: as §1, §2, §3, §4, §5, §6

[3] = test system: MRC-5 (control; lung fibroblasts); experiment: IC50 on control cell line MRC-5, CellTiter-Glo cell viability; conditions: MRC-5 normal cells
Protocol: as §1, §2, §3, §4, §5, §6

A2780 (ovarian cancer) = experiment: IC50 against tumor cell line A2780, CellTiter-Glo cell viability; conditions: A2780 cells, 96 hours, mean ± standard deviation of triplicate
Protocol: as §1, §2, §3, §4, §5, §6

Row | Structure (SMILES) | IC50 (DLD1 (colon cancer)) [µM] | IC50 ([1]; A2780cis cells, 96 hours, mean ± standard deviation of triplicate, read-out: IC50 (μM) A2780 cis) [µM] | IC50 [2] [µM] | IC50 ([3]; 96 hours, mean ± standard deviation of triplicate) [µM] | IC50 (A2780 (ovarian cancer)) [µM] | loss of activity between the two lines (A2780 to A2780cis) ([1]; A2780 vs A2780cis) | activity against normal cells (MRC-5), in words [3]
1 | N.N.[Cl][Pt][Cl] [CISPLATIN, cis-diaminodichloroplatin (II)] | 0.63 ± 0.08 | 27 ± 5 | 37 ± 9 | 8 ± 1 | 0.4 ± 0.1 |  | 
2 | COC(=O)/C(C)=C(C(=O)OC)/C(C(=O)OC)=[C](/C(=O)OC)[Pd]1([Cl])[CH]2N(Cc3ccccc3)C=CN2CN2C=CN(Cc3ccccc3)[CH]21 (stereo not shown) [Compound VII] |  |  |  |  |  | ca. one order of magnitude | substantially inactive
